Measurements reported in patent publication US9630961B2, “Arginine methyltransferase inhibitors and uses thereof” (Epizyme, Inc., priority 2013, dated 2017).

target: T1, CARM1 (PRMT4) (Homo sapiens, UniProt Q86X55); test: CARM1 Biochemical Assay (3H-SAM Flashplate, peptide substrate); conditions: 30 min preincubation, room temperature
T1 construct: Flag-CARM1-His; made in house; host or cells: HEK 293F cells (BacMam virus)
T1 sequence (Q86X55 1-585 isoform Q86X55-1): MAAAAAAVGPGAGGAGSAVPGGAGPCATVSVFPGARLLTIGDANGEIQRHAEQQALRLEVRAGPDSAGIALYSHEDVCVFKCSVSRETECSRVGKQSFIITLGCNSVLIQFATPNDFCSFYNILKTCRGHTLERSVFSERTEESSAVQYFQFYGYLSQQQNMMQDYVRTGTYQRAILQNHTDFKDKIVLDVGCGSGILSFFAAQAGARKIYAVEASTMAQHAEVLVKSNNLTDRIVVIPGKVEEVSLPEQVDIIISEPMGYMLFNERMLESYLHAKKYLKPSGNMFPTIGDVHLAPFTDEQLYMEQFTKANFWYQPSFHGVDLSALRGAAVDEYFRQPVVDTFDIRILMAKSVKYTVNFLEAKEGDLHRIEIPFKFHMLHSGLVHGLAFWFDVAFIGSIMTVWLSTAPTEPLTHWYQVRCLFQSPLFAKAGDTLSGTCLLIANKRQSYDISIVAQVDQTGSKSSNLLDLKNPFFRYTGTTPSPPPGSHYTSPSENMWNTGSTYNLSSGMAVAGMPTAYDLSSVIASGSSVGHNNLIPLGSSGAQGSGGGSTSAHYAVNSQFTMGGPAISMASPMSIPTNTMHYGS
Text: S-adenosylmethionine (SAM), S-adenosylhomocysteine (SAH), bicine, Tween20, dimethylsulfoxide (DMSO), bovine skin gelatin (BSG), sodium butyrate and Tris(2-carboxyethyl)phosphine hydrochloride solution (TCEP) were purchased from Sigma-Aldrich at the highest level of purity possible. ^3H-SAM was purchase from American Radiolabeled Chemicals with a specific activity of 80 Ci/mmol. 384-well streptavidin Flashplates were purchased from PerkinElmer.
Peptide representative of human histone H3 residues 16-30 was synthesized with an N-terminal linker-affinity tag motif and a C-terminal amide cap by 21st Century Biochemicals. The peptide was purified by high-performance liquid chromatography (HPLC) to greater than 95% purity and confirmed by liquid chromatography mass spectrometry (LC-MS). The sequence was Biot-Ahx-[…]-amide and contained a monomethylated arginine at position 26 (SEQ ID NO.:14).
Human CARM1 (PRMT4) (NM_199141.1) transcript clone was amplified from an HEK 293 cDNA library, incorporating a flanking 5′ sequence encoding a FLAG tag ([…]) (SEQ ID NO.:6) fused directly to Ala 2 of CARM1 and 3′ sequence encoding a hexa His sequence ([…]) (SEQ ID NO.:15) fused directly to Ser 608. The gene sequence encoding isoform1 containing a deletion of amino acids 539-561 was amplified subsequently and subcloned into pFastBacMam (Viva Biotech).
Recombinant baculovirus were generated according to Bac-to-Bac kit instructions (Life Technologies). […] Infections were carried out at 37° C. for 48 hours, harvested by centrifugation, and stored at −80° C. for purification.
Column was washed with 500 mM NaCl in buffer A and Flag-CARM1-His was eluted with 200 ug/ml FLAG peptide in buffer A. Pooled fractions were dialyzed in 20 mM Tris, 150 mM NaCl, 5% glycerol and 1 mM DTT, pH 7.8. The purity of recovered protein was 94.
General Procedure for CARM1 Enzyme Assays on Peptide Substrates.
The assays were all performed in a buffer consisting of 20 mM Bicine (pH=7.6), 1 mM TCEP, 0.005% BSG, and 0.002% Tween 20, prepared on the day of use. Compounds in 100% DMSO (1 ul) were spotted into a polypropylene 384-well V-bottom plates (Greiner) using a Platemate Plus outfitted with a 384-channel head (Thermo Scientific). DMSO (1 ul) was added to Columns 11, 12, 23, 24, rows A-H for the maximum signal control and 1 ul of SAH, a known product and inhibitor of CARM1, was added to columns 11, 12, 23, 24, rows I-P for the minimum signal control. A cocktail (40 ul) containing the CARM1 enzyme was added by Multidrop Combi (Thermo-Fisher). The compounds were allowed to incubate with CARM1 for 30 min at room temperature, then a cocktail (10 ul) containing ^3H-SAM and peptide was added to initiate the reaction (final volume=51 ul). The final concentrations of the components were as follows: CARM1 was 0.25 nM, ^3H-SAM was 30 nM, peptide was 250 nM, SAH in the minimum signal control wells was 1 mM, and the DMSO concentration was 2%. The assays were stopped by the addition of non-radiolabeled SAM (10 ul) to a final concentration of 300 uM, which dilutes the ^3H-SAM to a level where its incorporation into the peptide substrate is no longer detectable. 50 ul of the reaction in the 384-well polypropylene plate was then transferred to a 384-well Flashplate and the biotinylated peptides were allowed to bind to the streptavidin surface for at least 1 hour before being washed once with 0.1% Tween20 in a Biotek ELx405 plate washer. The plates were then read in a PerkinElmer TopCount plate reader to measure the quantity of ^3H-labeled peptide bound to the Flashplate surface, measured as disintegrations per minute (dpm) or alternatively, referred to as counts per minute (cpm).
Where dpm=disintegrations per minute, cmpd=signal in assay well, and min and max are the respective minimum and maximum signal controls.
Where top and bottom are the normally allowed to float, but may be fixed at 100 or 0 respectively in a 3-parameter fit. […]

Row | IC50 | Compound
1 | 3.01 to 10 µM | CN(CCN)Cc1c[nH]nc1-c1ccsc1 [Compound 3]
2 | 1.01 to 3 µM | CN(CCN)Cc1c[nH]nc1-c1ccc2scnc2c1 [Compound 9]
3 | ≥ 10 µM | Cc1noc(C)c1-c1n[nH]cc1CN(C)CCN [Compound 10]
4 | ≥ 10 µM | COc1ncc(-c2n[nH]cc2CN(C)CCN)cn1 [Compound 11]
5 | ≥ 10 µM | CN(CCN)Cc1c[nH]nc1-c1cn[nH]c1 [Compound 12]
6 | 0.101 to 1 µM | CN(CCN)Cc1c[nH]nc1-c1cnc2[nH]ccc2c1 [Compound 13]

Continued, compound first:

Row | Compound | IC50
7 | CN(CCN)Cc1c[nH]nc1-c1cncnc1 [Compound 4] | ≥ 10 µM
8 | CN(CCN)Cc1c[nH]nc1-c1cccs1 [Compound 5] | ≥ 10 µM
9 | CN(CCN)Cc1c[nH]nc1-c1ccco1 [Compound 6] | 3.01 to 10 µM
10 | CN(CCN)Cc1c[nH]nc1-c1ccoc1 [Compound 7] | 3.01 to 10 µM
11 | CN(CCN)Cc1c[nH]nc1-c1cnn(C)c1 [Compound 8] | 3.01 to 10 µM
12 | CN(CCN)Cc1c[nH]nc1-c1cc[nH]n1 [Compound 14] | ≥ 10 µM
